Measurements reported in patent US20190387748A1, “COMPOSITIONS AND RELATED METHODS FOR AGRICULTURE” (priority 2017, published 2019).
Entries after “also recorded” stand apart in the source; their conditions may differ.

Experiments:
[1] = test system: Acyrthosiphon pisum aphids; test: Aphid survival monitoring; type: in vivo
Excerpt: For each treatment, 33 aphids were placed onto each leaf. Artificial diet feeding systems were changed every 2-3 days throughout the experiment. Aphids were monitored daily for survival and dead aphids were removed from the deep petri dish housing the artificial feeding system when they were discovered.
(§1) Each treatment group received approximately the same number of individuals from each of the collection plant. For each treatment, 20 aphids were placed onto each leaf. Aphids were monitored daily for survival and dead aphids were removed when they were discovered. In addition, the developmental stage (1st, 2nd, 3rd, 4th, 5th instar, and 5R, representing a reproducing 5th instar) was determined daily throughout the experiment. Pictures of aphids were taken throughout the experiment to evaluate size differences between treatment groups.
(Vroma vicia faba from Johnny's Selected Seeds) in a climate-controlled incubator (16 h light/8 h dark photoperiod; 60±5% RH; 25±2° C.). Prior to being used for aphid rearing, fava bean plants were grown in potting soil at 24° C. with 16 h of light and 8 h of darkness. To limit maternal effects or health differences between plants, 5-10 adults from different plants were distributed among 10 two-week-old plants, and allowed to multiply to high density for 5-7 days. For experiments, first and second instar aphids were collected from healthy plants and divided into 2 different treatment groups: 1) negative control (leaf injected with water plus blue food coloring) and 2) leaf injected with 50 μg/ml rifampicin in water plus blue food coloring. Each treatment group received approximately the same number of individuals from each of the collection plants. For treatment, rifampicin stock solution (25 mg/ml in 100% methanol) was diluted to 50 μg/ml in water plus blue food coloring. The solution was then placed into a 1.5 ml Eppendorf tube with a fava bean stem perfused with the solutions and the opening of the tube was closed using parafilm. This feeding system was then placed into a deep petri dish (Fisher Scientific, Cat# FB0875711) and aphids were applied to the leaves of the plant. For each treatment, 74-81 aphids were placed onto each leaf. The feeding systems were changed every 2-3 days throughout the experiment. Aphids were monitored daily for survival and dead aphids were removed from the deep petri dish when they were discovered. In addition, the developmental stage (1st, 2nd, 3rd, 4th, 5th and 5R (5th that has reproduced) instar) was determined daily throughout the experiment.
For each treatment, 49-50 aphids were placed onto each leaf. The feeding systems were changed every 2-3 days throughout the experiment. Aphids were monitored daily for survival and dead aphids were removed from the deep petri dish when they were discovered.
For each treatment, 76-80 aphids were placed onto each leaf. The feeding systems were changed every 2-3 days throughout the experiment. Aphids were monitored daily for survival and dead aphids were removed from the deep petri dish when they were discovered.
For each treatment, 50-51 aphids were placed onto each leaf. The feeding systems were changed every 2-3 days throughout the experiment. Aphids were monitored daily for survival and dead aphids were removed from the deep petri dish when they were discovered.
For each treatment, 56-59 aphids were placed onto each leaf. The feeding systems were changed every 2-3 days throughout the experiment. Aphids were monitored daily for survival and dead aphids were removed from the deep petri dish when they were discovered.
For each treatment, 57-59 aphids were placed onto each leaf. The feeding systems were changed every 2-3 days throughout the experiment. Aphids were monitored daily for survival and dead aphids were removed from the deep petri dish when they were discovered.
For each treatment, 15-87 aphids were placed onto each leaf. Artificial diet feeding systems were changed every 2-3 days throughout the experiment.

[2] = test system: Acyrthosiphon pisum aphids; test: Aphid body area (size) measurement; type: in vivo; conditions: 10 or 100 uM pantothenol, through plants; by 3 days post-treatment
Protocol: For adult aphids, new nymphs were counted daily and then discarded. At the end of the experiments, fecundity was determined as the mean number of offspring produced daily once the aphid reached adulthood. Pictures of aphids were taken throughout the experiment to evaluate size differences between treatment groups.
as §1, with “Pictures of aphids were taken throughout the experiment to evaluate size differences between treatment groups.” left out
For adult aphids, new nymphs were counted daily and then discarded. At the end of the experiments, fecundity was measured in two ways: 1) the mean day at which the first offspring for the treatment group was determined and 2) the mean number of offspring produced daily once the aphid reached adulthood. […]
Aphids LSR-1 (which harbor only Buchnera), Acyrthosiphon pisum were grown on fava bean plants (Vroma vicia faba from Johnny's Selected Seeds) in a climate-controlled incubator (16 h light/8 h dark photoperiod; 60±5% RH; 25±2° C.). […] Aphids were monitored daily for survival and dead aphids were removed from the deep petri dish when they were discovered. […]

Q: Which “Aphid survival / mortality” value ([1]; 10 or 100 uM pantothenol, through plants) does the source give for `CC(C)(CO)[C@@H](O)C(=O)NCCCO` [pantothenol] here?
A: increased aphid mortality; also recorded: negatively affected aphid fitness

Q: And the Aphid survival rate ([1]; leaf coating, 10 uM pantothenol)?
A: resulted in aphid death; also recorded: lower survival rates than aphids placed on coated leaves with the control solution

Q: What about the “Aphid area (body size)” value [2] of the same compound?
A: drastic effect of pantothenol treatment; also recorded: smaller in area than untreated controls
